According to patent US11730714B2, “Compounds for the treatment of neuromuscular disorders” (NMD PHARMA A/S, priority 2017, dated 2023):

Legend:
human CIC-1 channels = target: T1, human CIC-1 channels (Homo sapiens, UniProt P35523); assay: Automated patch-clamp on human CIC-1 expressed in CHO cells (shift in half activation voltage V1/2); type: cell-based; settings: compound in intracellular solution vs vehicle control patches; CHO cells expressing human ClC-1
T1 construct: host or cells: CHO (Chinese hamster ovary) cells, cryopreserved, used directly after thawing
Procedure: FIG. 13A-13B: FIG. 13A illustrates the voltage protocol used to evoke currents in whole cell patches of CHO cells expressing human CIC-1 channels.
The investigatory goal of these experiments was to evaluate how compounds affect the open probability and current amplitude of human CIC-1 channels expressed in CHO cells. Experiments were performed using an automated patch clamp system that allowed high throughput testing of whole cell patches together with both intracellular and extracellular addition of compound.
Automated whole cell patch clamp experiments were performed with the Qpatch 16 system (Sophion Bioscience, Ballerup, Denmark) at room temperature. Data acquisition and analysis were performed in the Qassay software (ver. 5.6, Odense).
To obtain tail currents, the membrane potential was stepped to −100 mV after each test voltage for 300 ms and then relaxed to −30 mV for 2 sec between sweeps (FIG. 3). I/V relationships for whole cell instant and steady state current amplitudes were obtained by plotting average current densities at the beginning and at the end of the 300 ms step against the membrane potential (FIG. 4).
In order to determine the relative overall open probability (Po), the instantaneous tail currents were normalized to the maximal tail current obtained following the most positive voltage step and plotted against the test voltage. Plots of normalized tail currents from each whole cell patch were then fitted to a Boltzmann function allowing determination of half activation voltages (V1/2, FIG. 5).
Osmolality adjusted to […] using sucrose.
Intracellular solutions contained: 80 mM […], 60 mM CsCl, 5/1 mM KOH/EGTA, 10 mM HEPES, 10 mM NaCl, pH adjusted to 7.2 with NaOH (2 M). Osmolality adjusted to ˜320 mOsm using sucrose.
Cells used in patch clamp experiments were Chinese hamster ovary cells (CHO) constitutively expressing human CIC-1 channels. The amino acid sequence encoded by the cDNA used to create this cell line was identical to the translated sequence for GenBank accession number NM_000083.2. Cells were produced by Charles River (Catalogue CT6175, Cleveland Ohio, USA) in a cryopreserved format. Experiments were performed on the cells directly after thawing (3×10^6 cells used in each experiment).
To evaluate the compound effect on CIC-1, when applied directly to the intracellular side of the cell membrane, the half activation voltage, V1/2, was determined from whole cell patches with compound added to the intracellular solution and then compared to V1/2 determined from control cell patches with only vehicle added to the intracellular solution. Additionally, the effect of extracellular added compound was evaluated by determine V1/2 and steady state current amplitudes before and after exchanging the extracellular solution to contain compound.
The difference in half activation voltage of CIC-1 channels, […]V1/2, was determined as the difference between the cell patches treated intracellularly with compound and control cells patches and is reported in Table 4 below. A positive shift in […]V1/2 is reflecting CIC-1 channel inhibition by the tested compound. P-values of <0.05 is considered significant.

rat soleus muscles = type: cell-based; settings: 10 and 25 μM C8; 1 μM μ-conotoxin GiiiB; vs control conditions

T1 sequence (P35523 whole entry): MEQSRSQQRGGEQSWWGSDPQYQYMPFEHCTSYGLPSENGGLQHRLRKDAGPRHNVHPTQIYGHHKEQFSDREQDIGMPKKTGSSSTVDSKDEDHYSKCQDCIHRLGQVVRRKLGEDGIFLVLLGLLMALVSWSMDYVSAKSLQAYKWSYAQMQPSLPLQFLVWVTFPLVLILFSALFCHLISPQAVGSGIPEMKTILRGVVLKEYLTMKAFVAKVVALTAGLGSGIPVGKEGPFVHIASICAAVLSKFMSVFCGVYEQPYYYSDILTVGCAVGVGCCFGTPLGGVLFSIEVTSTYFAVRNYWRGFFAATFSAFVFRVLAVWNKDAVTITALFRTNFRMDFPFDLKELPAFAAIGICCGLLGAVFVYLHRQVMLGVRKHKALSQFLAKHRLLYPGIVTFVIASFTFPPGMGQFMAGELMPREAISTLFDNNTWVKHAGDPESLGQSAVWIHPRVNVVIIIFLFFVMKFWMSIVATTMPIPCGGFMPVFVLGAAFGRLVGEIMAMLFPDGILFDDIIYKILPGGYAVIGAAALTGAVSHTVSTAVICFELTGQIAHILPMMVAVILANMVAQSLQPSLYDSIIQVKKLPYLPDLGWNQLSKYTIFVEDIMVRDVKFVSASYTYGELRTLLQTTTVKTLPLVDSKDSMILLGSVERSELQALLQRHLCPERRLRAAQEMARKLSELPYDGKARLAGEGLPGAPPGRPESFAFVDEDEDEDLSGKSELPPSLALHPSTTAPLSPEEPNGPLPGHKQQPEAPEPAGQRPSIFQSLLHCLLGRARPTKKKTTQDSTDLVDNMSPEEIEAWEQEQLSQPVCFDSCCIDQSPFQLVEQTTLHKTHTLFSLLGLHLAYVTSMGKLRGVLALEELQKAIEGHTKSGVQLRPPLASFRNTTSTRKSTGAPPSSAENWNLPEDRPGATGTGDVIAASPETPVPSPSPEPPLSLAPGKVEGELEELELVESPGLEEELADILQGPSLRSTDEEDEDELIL

Compound: (2S)-2-(4-bromophenoxy)(2-^2H)butanoic acid [Compound A-60]
- ΔV½ (difference in half activation voltage of ClC-1) (human CIC-1 channels): 20.0 mV

Compound: C[C@H](Oc1ccc(Br)cc1)C(=O)O [Compound C8, (2S)-2-(4-bromophenoxy)propanoic acid]
- EPP amplitude (rat soleus muscles): significantly larger EPPs
